Laboratory results: publication doi:10.1101/2024.08.25.609621 (bioRxiv, 2024)
Several values for one entry are separate records, joined by “and”; a condition that tells them apart may be missing. Equal entries are not always repeated. Where two headings read alike, the source gives them in different places.

Experiments:
[1] = target: SARS-CoV-2 NSP3 macrodomain (Mac1), P43 crystal form (Severe acute respiratory syndrome coronavirus 2, UniProt P0DTD1); assay type: binding; details: for 1-BDC: PanDDA background density correction; for Total number of conformations: ligand conformations modeled in Mac1 crystal structure
[2] = target: SARS-CoV-2 NSP3 macrodomain (Mac1) (Severe acute respiratory syndrome coronavirus 2, UniProt P0DTD1); assay: biochemical; assay type: binding
[3] = ligand modeling in Mac1 crystal structure
[4] = dose-response, read-out: SARS CoV-2 macrodomain HTRF assay: IC50
[5] = dose-response, read-out: SARS CoV-2 macrodomain HTRF assay: Ki
[6] = from SARS CoV-2 macrodomain HTRF assay
[7] = stereoisomer(s) modeled in Mac1 crystal structure
[8] = SARS CoV-2 macrodomain HTRF assay
[9] = SARS CoV-2 macrodomain HTRF assay, dose-response, read-out: Ki
[10] = ligand modeling in Mac1 crystal soak
[11] = Single dose, concentration 200 μM, read-out: SARS CoV-2 macrodomain HTRF assay: Average % competition
[12] = preliminary screen, compound at 200 μM, mean of 3-4 technical replicates, read-out: % competition in HTRF assay
[13] = soak concentration 10 mM, DMSO background map
[14] = stereoisomer(s) of ligand modeled in Mac1 crystal structure
[15] = Single dose, concentration 200 μM, read-out: Average % competition

OCC1CC=CCN1c1ncnc2[nH]ccc12 (centres unmarked) [AVI-6002]
Number of isomers bound [1, 3]: 1
IC50 [2, 4]: 52 µM
Ki [2, 5]: 48 µM
Ligand efficiency (binding enery per heavy atom) [2, 6]: 0.35

O=S1(=O)CCCC(O)(CNc2ncnc3[nH]ccc23)C1 (centres unmarked) [AVI-4317]
Number of isomers bound [1, 3]: 1
fold less potent compared to the AVI-3761 parent ([2]; HTRF IC50): ~ 4 fold
Ki [2, 5]: 100 µM
Ligand efficiency (binding enery per heavy atom) [2, 6]: 0.28
IC50 ([2]; read-out: HTRF IC50): 110 µM

Cc1c[nH]c2ncnc(NCC(C)(C)O)c12 [AVI-3758, 2-methyl-1-((5-methyl-7H-pyrrolo[2,3-d]pyrimidin-4-yl)amino)propan-2-ol]
Occupancy difference (refined_occupancy - 2*(1-BDC)) [1]: 22
Refined ligand occupancy (%) [1]: 50%
1-BDC [1]: 0.14
X-ray crystal structure ([1]; X-ray crystal structure determined (TRUE)): TRUE
Hit (PanDDA run, overall) ([1]; crystal soak 10 mM, P43 crystals): TRUE
Hit (PanDDA run, DMSO background map) ([1]; crystal soak 10 mM, DMSO background map): TRUE
1-BDC (PanDDA run, DMSO background map) ([1]; crystal soak 10 mM, DMSO background map, event 1): 0.19 and 0.14
Total number of conformations [1]: 2
Number of isomers bound [1, 3]: 1
2*(1-BDC) (%) ([1]; occupancy estimate from PanDDA BDC): 28%
Binding site ([1]; site of ligand in X-ray crystal structure): Adenosine
Isomers modeled [1, 7]: achiral,achiral
Hill slope ([2]; HTRF dose-response fit, Mac1): 1.0
Ligand efficiency (binding enery per heavy atom) [2, 8]: 0.40
Hill slope ([2]; SARS CoV-2 macrodomain HTRF assay, dose-response): 1.0
Ki [2, 9]: 26 µM
IC50 ([2]; read-out: HTRF IC50): 28 µM

OCC(O)C1CCCN1c1ncnc2[nH]ccc12 (centres unmarked) [AVI-3701]
Number of isomers bound [1, 10]: 1
PanDDA run, TFA/DMSO background map: 1-BDC ([1]; soak concentration 10 mM): 0.16
PanDDA run, TFA/DMSO background map: Hit ([1]; soak concentration 10 mM): TRUE
inhibition at 200 µM [2, 11]: 54%
inhibition at 200 µM [2, 12]: 54%

CC(C)(O)[C@@H]1CCCN1c1ncnc2[nH]ccc12 [AVI-1445, (S)-2-(1-(7H-pyrrolo[2,3-d]pyrimidin-4-yl)pyrrolidin-2-yl)propan-2-ol]
1-BDC [1]: 0.12
Pandda run, overall: Modeled ([1]; crystal soak, soak concentration 10 mM): TRUE
Pandda run, overall: Hit ([1]; crystal soak, soak concentration 10 mM, TRUE = ligand hit): TRUE
Total number of conformations [1]: 1
Number of isomers bound [1, 10]: 1
2*(1-BDC) (%) ([1]; occupancy estimate from PanDDA 1-BDC): 24%
X-ray crystallography: Binding site ([1]; site where the ligand is bound in the X-ray crystal structure): Adenosine
PanDDA run, DMSO background map: 1-BDC [1, 13]: 0.12
PanDDA run, DMSO background map: Hit [1, 13]: TRUE
PanDDA run, TFA/DMSO background map: 1-BDC ([1]; soak concentration 10 mM): 0.12
PanDDA run, TFA/DMSO background map: Hit ([1]; soak concentration 10 mM): TRUE
fold decrease in affinity compared to AVI-607 ([2]; HTRF): ~ 5 fold
Hill slope ([2]; HTRF dose-response fit, Mac1): 1.1
inhibition at 200 µM [2, 11]: 75%
SARS CoV-2 macrodomain HTRF assay: Hillslope ([2]; dose-response fit): 1.6
Ki [2, 5]: 100 µM
Ligand efficiency (binding enery per heavy atom) [2, 6]: 0.31
inhibition at 200 µM [2, 12]: 75%
IC50 ([2]; read-out: HTRF IC50): 110 µM

Cc1c[nH]c2ncnc(NCC3(O)CCSCC3)c12 [AVI-4195, 4-(((5-methyl-7H-pyrrolo[2,3-d]pyrimidin-4-yl)amino)methyl)tetrahydro-2H-thiopyran-4-ol]
Number of isomers bound [1, 3]: 1
Isomers modeled [1, 7]: achiral
IC50 [2, 4]: 52 µM
Ki [2, 5]: 48 µM
Ligand efficiency (binding enery per heavy atom) [2, 6]: 0.31

O=C(O)C(F)(F)F.OCC1(Nc2ncnc3[nH]ccc23)CCCC1 [AVI-3692]
PanDDA run, TFA/DMSO background map: 1-BDC ([1]; crystal soak 10 mM): 0.11
PanDDA run, TFA/DMSO background map: Hit ([1]; crystal soak 10 mM): TRUE
Number of isomers bound [1, 10]: 1
Isomers modeled [1, 14]: achiral
Ligand efficiency (binding enery per heavy atom) [2, 8]: 0.35
IC50 ([2]; SARS CoV-2 macrodomain HTRF assay, dose-response, read-out: IC50): 49 µM
Ki [2, 9]: 46 µM

OCC(Cc1cccs1)Nc1ncnc2[nH]ccc12 (centres unmarked) [AVI-3711]
Number of isomers bound [1, 10]: 1
PanDDA run, TFA/DMSO background map: 1-BDC ([1]; soak concentration 10 mM): 0.16
PanDDA run, TFA/DMSO background map: Hit ([1]; soak concentration 10 mM): TRUE
inhibition at 200 µM [2, 15]: 63%
inhibition at 200 µM [2, 12]: 63%

Cc1nn(C)cc1C1CCC(CO)N1c1ncnc2[nH]ccc12 (centres unmarked) [AVI-3733]
Number of isomers bound [1, 10]: 1
inhibition at 200 µM [2, 11]: 44%
inhibition at 200 µM [2, 12]: 44%

CC1(C)CCN(c2ncnc3[nH]ccc23)C(CO)C1 (centres unmarked) [AVI-5994]
Number of isomers bound [1, 3]: 1
Isomers modeled [1, 7]: S,S
IC50 [2, 4]: 68 µM
Ki [2, 5]: 63 µM
Ligand efficiency (binding enery per heavy atom) [2, 6]: 0.31

CCC(Nc1ncnc2[nH]ccc12)C(C)O (centres unmarked) [AVI-3635]
PanDDA run, TFA/DMSO background map: 1-BDC ([1]; crystal soak 10 mM): 0.08
PanDDA run, TFA/DMSO background map: Hit ([1]; crystal soak 10 mM): TRUE
Number of isomers bound [1, 10]: 1
PanDDA run, TFA/DMSO background map: 1-BDC ([1]; soak concentration 10 mM): 0.11
PanDDA run, TFA/DMSO background map: Hit ([1]; soak concentration 10 mM): TRUE
inhibition at 200 µM [2, 15]: 54%
inhibition at 200 µM [2, 12]: 54%

O=C(O)C(F)(F)F.OCC12CC(CN1c1ncnc3[nH]ccc13)C2 [AVI-3681]
PanDDA run, TFA/DMSO background map: 1-BDC ([1]; crystal soak 10 mM): 0.12
PanDDA run, TFA/DMSO background map: Hit ([1]; crystal soak 10 mM): TRUE
Number of isomers bound [1, 10]: 1
Isomers modeled [1, 14]: achiral
inhibition at 200 µM [2, 11]: 54%
inhibition at 200 µM [2, 12]: 54%

Cc1ccc(CC(CO)Nc2ncnc3[nH]ccc23)cc1C (centres unmarked) [AVI-3684]
Number of isomers bound [1, 10]: 2
Isomers modeled [1, 14]: R,S
inhibition at 200 µM [2, 15]: < 10%
inhibition at 200 µM [2, 12]: < 10%

CC1CCN(c2ncnc3[nH]ccc23)C1CO (centres unmarked) [AVI-3655]
PanDDA run, TFA/DMSO background map: 1-BDC ([1]; crystal soak 10 mM): 0.18
PanDDA run, TFA/DMSO background map: Hit ([1]; crystal soak 10 mM): TRUE
Number of isomers bound [1, 10]: 1
inhibition at 200 µM [2, 11]: 75%
inhibition at 200 µM [2, 12]: 75%

OCC1CC2(CCCC2)CN1c1ncnc2[nH]ccc12 (centres unmarked) [AVI-3708]
Number of isomers bound [1, 10]: 1
IC50 [2, 4]: 27 µM
Ki [2, 5]: 25 µM
Ligand efficiency (binding enery per heavy atom) [2, 6]: 0.32

O=C(O)C(F)(F)F.OC[C@@H]1CC2(CC2)CN1c1ncnc2[nH]ccc12 [AVI-3710]
Number of isomers bound [1, 10]: 1
PanDDA run, TFA/DMSO background map: 1-BDC ([1]; soak concentration 10 mM): 0.23
PanDDA run, TFA/DMSO background map: Hit ([1]; soak concentration 10 mM): TRUE
Isomers modeled [1, 14]: S,S
inhibition at 200 µM [2, 11]: 57%
inhibition at 200 µM [2, 12]: 57%

OCC1CC2(CCOCC2)CN1c1ncnc2[nH]ccc12 (centres unmarked) [AVI-3707]
Number of isomers bound [1, 10]: 1
PanDDA run, TFA/DMSO background map: 1-BDC ([1]; soak concentration 10 mM): 0.15
PanDDA run, TFA/DMSO background map: Hit ([1]; soak concentration 10 mM): TRUE
inhibition at 200 µM [2, 11]: 39%
inhibition at 200 µM [2, 12]: 39%

OCC(CN1CCCCC1)Nc1ncnc2[nH]ccc12 (centres unmarked) [AVI-3677]
PanDDA run, TFA/DMSO background map: 1-BDC ([1]; crystal soak 10 mM): 0.18
PanDDA run, TFA/DMSO background map: Hit ([1]; crystal soak 10 mM): TRUE
Number of isomers bound [1, 10]: 1
inhibition at 200 µM [2, 15]: < 10%
inhibition at 200 µM [2, 12]: < 10%

OCC(Cc1ccc(I)cc1)Nc1ncnc2[nH]ccc12 (centres unmarked) [AVI-3686]
PanDDA run, TFA/DMSO background map: 1-BDC ([1]; crystal soak 10 mM): 0.19
PanDDA run, TFA/DMSO background map: Hit ([1]; crystal soak 10 mM): TRUE
Number of isomers bound [1, 10]: 2
Isomers modeled [1, 14]: S,R
inhibition at 200 µM [2, 15]: < 10%
inhibition at 200 µM [2, 12]: < 10%

OCC(Nc1ncnc2[nH]ccc12)C1CCC1 (centres unmarked) [AVI-3638]
PanDDA run, TFA/DMSO background map: 1-BDC ([1]; crystal soak 10 mM): 0.1
PanDDA run, TFA/DMSO background map: Hit ([1]; crystal soak 10 mM): TRUE
Number of isomers bound [1, 10]: 1
inhibition at 200 µM [2, 15]: 77%
inhibition at 200 µM [2, 12]: 77%

CC(C)(C)CC(CO)Nc1ncnc2[nH]ccc12 (centres unmarked) [AVI-3648]
PanDDA run, TFA/DMSO background map: 1-BDC ([1]; crystal soak 10 mM): 0.16
PanDDA run, TFA/DMSO background map: Hit ([1]; crystal soak 10 mM): TRUE
Number of isomers bound [1, 10]: 1
inhibition at 200 µM [2, 15]: 27%
inhibition at 200 µM [2, 12]: 27%

CC1CC(C(=O)O)CCN1C(=O)c1ccc2c(c1)NC(=O)CO2 (centres unmarked) [AVI-303]
Number of isomers bound [1, 10]: 1
inhibition at 200 µM ([2]; Single dose, 200 μM, mean of three technical replicates, read-out: Average % competition): < 10%
inhibition at 200 µM [2, 12]: < 10%

NC(=O)C1(O)CCN(c2ncnc3[nH]ccc23)C1 (centres unmarked) [AVI-611]
Number of isomers bound [1, 10]: 1
Isomers modeled [1, 14]: S,S
inhibition at 200 µM [2, 15]: 30%
inhibition at 200 µM [2, 12]: 30%
